The results in this text go back to patent publication US20100216834A1, “HIV INTEGRASE INHIBITORS” (priority 2006, published 2010).

As usually defined, the IC50 is the concentration that inhibits the measured activity by half.

The structures appear in SMILES notation. Read-outs that look alike come from different tables or passages of the source.

The target in assay [1] is T1, recombinant integrase (HIV integrase) (Human immunodeficiency virus type 1 group M subtype B, UniProt P04585).
T1 construct: Strand Transfer Catalyzed by Recombinant Integrase
Briefly: HIV integrase assay: strand transfer catalyzed by recombinant integrase. It counts as biochemical. How it is done: Assays for the strand transfer activity of integrase were conducted in accordance with WO 02/30930 for recombinant integrase. […] For example, the compounds prepared in Examples 1 to 3 were tested in the integrase assay and found to have the following IC50 values:
Further description on conducting the assay using preassembled complexes is found in Wolfe, A. L. et al., J. Virol. 1996, 70: 1424-1432, Hazuda et al., J. Virol. 1997, 71: 7005-7011; Hazuda et al., Drug Design and Discovery 1997, 15: 17-24; and Hazuda et al., Science 2000, 287: 646-650.

A further assay relates to HIV. Briefly: Assay for inhibition of HIV replication (spread assay): acute HIV infection of T-lymphoid cells. It counts as cell-based. On the procedure: Assays for the inhibition of acute HIV infection of T-lymphoid cells were conducted in accordance with Vacca, J. P. et al., Proc. Natl. Acad. Sci. USA 1994, 91: 4096. […] For example, the compounds of Examples 1 to 3 were tested in this assay and found to have the following IC95 values: […]

Setting [2] is: IC50 (inhibition of strand transfer activity).

As to `CN1C[C@H](O)C(C)(C)Cn2c(c3c(c(O)c2=O)C(=O)N(Cc2ccc(F)c(Cl)c2)CC3)C1=O` (single isomer, unassigned) [Ex. 1 - Isomer A-1], the IC50 in assay [1] (setting [2]) amounted to 14 nM. Further, the “IC95 in the presence of 10% FBS” value with HIV worked out at 0.015 µM.

As for `CN1C[C@H](O)C(C)(C)Cn2c(c3c(c(O)c2=O)C(=O)N(Cc2ccc(F)c(Cl)c2)CC3)C1=O` (single isomer, unassigned) [Ex. 1 - Isomer B-1], the IC50 in assay [1] (setting [2]) worked out at 21 nM. Besides, the “IC95 in the presence of 10% FBS” value in the assay on HIV is 0.031 µM.

Take `CN1C[C@@H](O)C(C)(C)Cn2c(c3c(c(O)c2=O)C(=O)N(Cc2ccc(F)c(Cl)c2)CC3)C1=O` (single isomer, unassigned) [Ex. 2]: the IC50 in assay [1] (read-out: IC50 (inhibition of strand transfer activity)) amounted to 3 nM. The “IC95 in the presence of 10% FBS” value with HIV was determined as 0.031 µM.

On to `CC1CCCN(C)C(=O)c2c3c(c(O)c(=O)n21)C(=O)N(Cc1ccc(F)c(Cl)c1)CC3` (single isomer, unassigned) [Ex. 3 - Diasteromer A-3, 11-(3-Chloro-4-fluorobenzyl)-9-hydroxy-2,6-dimethyl-3,4,5,6,12,13-hexahydro-2H[1,4]diazocino[2,1-a]-2,6-naphthyridine-1,8,10(11H)-trione], for which, in assay [1] (setting [2]), the IC50 was 17 nM. Moreover, the “IC95 in the presence of 10% FBS” value in the assay with HIV was determined as 0.125 µM.

As to `CC1CCCN(C)C(=O)c2c3c(c(O)c(=O)n21)C(=O)N(Cc1ccc(F)c(Cl)c1)CC3` (single isomer, unassigned) [Ex. 3 - Diasteromer B-3, 11-(3-Chloro-4-fluorobenzyl)-9-hydroxy-2,6-dimethyl-3,4,5,6,12,13-hexahydro-2H[1,4]diazocino[2,1-a]-2,6-naphthyridine-1,8,10(11H)-trione], in assay [1] (setting [2]), the IC50 was 17 nM. The “IC95 in the presence of 10% FBS” value in the assay with HIV worked out at 0.011 µM.

Consider `CC1CCCN(C)C(=O)c2c3c(c(O)c(=O)n21)C(=O)N(Cc1ccc(F)c(Cl)c1)CC3` (single isomer, unassigned) [Ex. 3 - Diasteromer C-3, 11-(3-Chloro-4-fluorobenzyl)-9-hydroxy-2,6-dimethyl-3,4,5,6,12,13-hexahydro-2H[1,4]diazocino[2,1-a]-2,6-naphthyridine-1,8,10(11H)-trione], for which the IC50 in assay [1] (setting [2]) amounted to 8 nM. In addition, the “IC95 in the presence of 10% FBS” value with HIV worked out at 0.250 µM.

In the case of `CC1CCCN(C)C(=O)c2c3c(c(O)c(=O)n21)C(=O)N(Cc1ccc(F)c(Cl)c1)CC3` (single isomer, unassigned) [Ex. 3 - Diasteromer D-3, 11-(3-Chloro-4-fluorobenzyl)-9-hydroxy-2,6-dimethyl-3,4,5,6,12,13-hexahydro-2H[1,4]diazocino[2,1-a]-2,6-naphthyridine-1,8,10(11H)-trione], the IC50 in assay [1] (setting [2]) came to 8 nM. Besides, the “IC95 in the presence of 10% FBS” value in the assay with HIV was 0.008 µM.
